# In US20260217708A1, “FUSED BENZAZEPINE DERIVATIVES FOR USE IN THE TREATMENT OF CANCER AND EPILEPSY” (UCB BIOPHARMA SRL, priority 2023, published 2026):
# Tests used:
# system Xc^− [1] = biological target: T1, system Xc^− (Homo sapiens, UniProt Q9UPY5); assay: Cystine-induced glutamate release assay; format: cell-based; design: endogenous in cells; host or cells: H4 cells; settings: H4 cells, sodium-free HEPES buffer, 50 μM L-Cystine, 2 hours, Amplex Red glutamate readout; read-out: pIC50 Cystine-induced glutamate release assay (converted)
# T1 sequence (Q9UPY5 1-501): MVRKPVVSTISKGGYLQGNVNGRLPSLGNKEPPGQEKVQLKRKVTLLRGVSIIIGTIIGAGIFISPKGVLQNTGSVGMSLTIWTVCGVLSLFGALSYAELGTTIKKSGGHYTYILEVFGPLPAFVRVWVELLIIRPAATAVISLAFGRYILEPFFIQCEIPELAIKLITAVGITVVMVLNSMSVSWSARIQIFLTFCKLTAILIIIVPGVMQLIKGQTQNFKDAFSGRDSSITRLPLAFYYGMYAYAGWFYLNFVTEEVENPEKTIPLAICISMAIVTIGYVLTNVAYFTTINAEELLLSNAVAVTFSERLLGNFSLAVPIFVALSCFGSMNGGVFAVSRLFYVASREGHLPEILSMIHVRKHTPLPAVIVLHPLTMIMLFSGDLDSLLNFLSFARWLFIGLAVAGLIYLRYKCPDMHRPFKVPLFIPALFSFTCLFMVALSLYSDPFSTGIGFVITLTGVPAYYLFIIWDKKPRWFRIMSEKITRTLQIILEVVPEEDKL
# T1 sequence (P08195 1-529 partner): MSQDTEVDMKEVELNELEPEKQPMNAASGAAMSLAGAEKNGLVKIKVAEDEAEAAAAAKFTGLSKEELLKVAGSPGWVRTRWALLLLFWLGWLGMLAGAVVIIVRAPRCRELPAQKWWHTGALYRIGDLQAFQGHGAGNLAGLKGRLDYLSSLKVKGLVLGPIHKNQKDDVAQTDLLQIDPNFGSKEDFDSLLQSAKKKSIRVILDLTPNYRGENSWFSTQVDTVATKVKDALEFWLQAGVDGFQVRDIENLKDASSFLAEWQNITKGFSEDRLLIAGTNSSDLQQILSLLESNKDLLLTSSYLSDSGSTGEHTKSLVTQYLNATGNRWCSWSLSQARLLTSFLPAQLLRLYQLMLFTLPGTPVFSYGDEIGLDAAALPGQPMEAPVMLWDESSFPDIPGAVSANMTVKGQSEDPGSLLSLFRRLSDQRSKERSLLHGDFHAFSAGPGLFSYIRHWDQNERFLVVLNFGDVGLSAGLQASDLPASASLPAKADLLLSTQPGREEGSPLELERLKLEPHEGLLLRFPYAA
# Method in brief: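 IC50 (reported as pIC50) normalized to DMSO 1% and Erastin 50 μM controls, from Amplex Red fluorescence of glutamate exported into supernatant. H4 cells were washed into sodium-free buffer to exclude EAAT transport, then given compound with 50 μM L-cystine for 2 h in the incubator.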
# system Xc^− [2] = biological target: T1, system Xc^−; assay: [^14C]L-Cystine uptake assay; format: cell-based; design: endogenous in cells; host or cells: H4 cells; settings: H4 cells, sodium-free HEPES buffer, 0.5 μM L-[14C]Cystine and 4.5 μM L-Cystine, 1 hour at 37° C.; read-out: pIC50 [^14C] L-Cystine uptake assay (converted)
# Method in brief: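 Compound effect is given as pIC50, taken between controls of 1% DMSO and 50 μM Erastin. Human H4 cells were pretreated 15 min with compound in sodium-free buffer, then took up 0.5 μM [14C]cystine with 4.5 μM cold cystine for 1 hour at 37° C, read by scintillation proximity counting.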
# system Xc^− [3] = biological target: T1, system Xc^−; settings: background statement, no data given; cited from earlier work
IC50 (system Xc^− [1]),IC50 (system Xc^− [2]),Compound,inhibition of the System Xc− antiporter (system Xc^− [3]),potency on human System Xc− function (system Xc^− [3])
39.8 to 100 nM,15.8 to 39.8 nM,"COc1ccc2c(c1)C(C)C(=O)N(CC(=O)Nc1ccc(C(F)(F)F)cc1)c1cc(C)nc(Cl)c1-2 (stereo not drawn) [#393, 2-(1-chloro-9-methoxy-3,7-dimethyl-6-oxo-7H-pyrido[3,4-a][3]benzazepin-5-yl)-N-[4-(trifluoromethyl)phenyl]acetamide]",,
39.8 to 100 nM,15.8 to 39.8 nM,"COc1nc2c(cc1CO)N(CC(=O)Nc1ccc(Cl)c(F)c1)C(=O)C(C)c1ccccc1-2 (stereo not drawn) [#399, N-(4-chloro-3-fluoro-phenyl)-2-[3-(hydroxymethyl)-2-methoxy-7-methyl-6-oxo-7H-pyrido[3,2-d][3]benzazepin-5-yl]acetamide]",,
39.8 to 100 nM,100 to 501 nM,"COc1ncc(F)c2c1-c1ccccc1C(C)C(=O)N2CC(=O)Nc1ccc(Cl)c(F)c1 (stereo not drawn) [#400, N-(4-chloro-3-fluoro-phenyl)-2-(4-fluoro-1-methoxy-7-methyl-6-oxo-7H-pyrido[4,3-d][3]benzazepin-5-yl)acetamide]",,
< 15.8 nM,< 15.8 nM,"Cc1cc2c(c(F)n1)-c1ccccc1C(C)C(=O)N2CC(=O)Nc1ccc(Cl)c(F)c1 (stereo not drawn) [#402, N-(4-chloro-3-fluoro-phenyl)-2-(1-fluoro-3,7-dimethyl-6-oxo-7H-pyrido[3,4-a][3]benzazepin-5-yl)acetamide]",,
15.8 to 39.8 nM,39.8 to 100 nM,"Cc1cc2c(c(F)n1)-c1ccc(F)cc1C(C)C(=O)N2CC(=O)Nc1ccc(Cl)c(F)c1 (stereo not drawn) [#404, N-(4-chloro-3-fluoro-phenyl)-2-(1,9-difluoro-3,7-dimethyl-6-oxo-7H-pyrido[3,4-a][3]benzazepin-5-yl)acetamide]",,
39.8 to 100 nM,39.8 to 100 nM,"CC1C(=O)N(CC(=O)Nc2ccc(Cl)c(F)c2)c2ccnc(OC(F)F)c2-c2cccnc21 (stereo not drawn) [#412, N-(4-chloro-3-fluoro-phenyl)-2-[3-(difluoromethoxy)-10-methyl-9-oxo-4,8,12-triazatricyclo[9.4.0.0^2,7]pentadeca-1(15),2,4,6,11,13-hexaen-8-yl]acetamide]",,
39.8 to 100 nM,15.8 to 39.8 nM,"Cc1cc2c(c(F)n1)-c1ncc(F)cc1CC(=O)N2CC(=O)Nc1ccc(Cl)c(F)c1 [#417, N-(4-chloro-3-fluoro-phenyl)-2-(5,15-difluoro-13-methyl-9-oxo-3,10,14-triazatricyclo[9.4.0.0^2,7]pentadeca-1(11),2,4,6,12,14-hexaen-10-yl)acetamide]",,

# Further lines, the compound ahead of its results:
Compound,IC50 (system Xc^− [1]),IC50 (system Xc^− [2]),inhibition of the System Xc− antiporter (system Xc^− [3]),potency on human System Xc− function (system Xc^− [3])
"Cc1cc2c(c(F)n1)-c1cc(F)cnc1CC(=O)N2CC(=O)Nc1ccc(C(F)(F)F)cc1 [#391, 2-(3,14-difluoro-5-methyl-9-oxo-4,8,12-triazatricyclo[9.4.0.0^2,7]pentadeca-1(15),2(7),3,5,11,13-hexaen-8-yl)-N-[4-(trifluoromethyl)phenyl]acetamide]",100 to 501 nM,15.8 to 39.8 nM,,
"Cc1cc2c(c(C#N)n1)-c1ncccc1CC(=O)N2CC(=O)Nc1ccc(C(F)(F)F)cc1 [#392, 2-(15-cyano-13-methyl-9-oxo-3,10,14-triazatricyclo[9.4.0.0^2,7]pentadeca-1(11),2,4,6,12,14-hexaen-10-yl)-N-[4-(trifluoromethyl)phenyl]acetamide]",39.8 to 100 nM,15.8 to 39.8 nM,,
"CC1C(=O)N(CC(=O)Nc2ccc(C(F)F)cc2)c2cc(Cl)nc(Cl)c2-c2cccnc21 (stereo not drawn) [#395, 2-(3,5-dichloro-10-methyl-9-oxo-4,8,12-triazatricyclo[9.4.0.0^2,7]pentadeca-1(11),2(7),3,5,12,14-hexaen-8-yl)-N-[4-(difluoromethyl)phenyl]acetamide]",15.8 to 39.8 nM,39.8 to 100 nM,,
"O=C(CN1C(=O)Cc2ncccc2-c2c1cc(N1CC3(C1)CC3(F)F)nc2F)Nc1ccc(C(F)F)cc1 [#421, 2-[5-(2,2-difluoro-5-azaspiro[2.3]hexan-5-yl)-3-fluoro-9-oxo-4,8,12-triazatricyclo[9.4.0.0^2,7]pentadeca-1(11),2(7),3,5,12,14-hexaen-8-yl]-N-[4-(difluoromethyl)phenyl]acetamide]",15.8 to 39.8 nM,15.8 to 39.8 nM,,
O=C(O)c1cc(/N=N/c2ccc(S(=O)(=O)Nc3ccccn3)cc2)ccc1O [Sulfasalazine],,,non-selective inhibitor,low
